Where “and” joins values, the source holds several entries; their conditions need not be identical. Equal entries are not always repeated. Inconclusive results and toxic doses are left out.

This assay concerns P388 leukemia ip, CD2F1 mice, survival T/C. The assay can be described thus: NCI In Vivo Anticancer Drug Screen. Data for tumor model P388 Leukemia (intraperitoneal) in CD2F1 (CDF1) mice. The settings on record: endpoint: median survival time, higher = longer survival. In outline: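 Mice carrying the transplanted tumor received test compound or vehicle. Survival was recorded in each group, and the value is the treated-group measurement divided by that of the vehicle-treated control group.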

Setting [1] is: dose: 50.0 mg/kg/injection, schedule: Q01DX005 (ip), vehicle: saline.
[2] abbreviates: dose: 60.0 mg/kg/injection, schedule: Q01DX005 (ip), vehicle: saline.
The mark [3] stands for this setting: dose: 100.0 mg/kg/injection, schedule: Q01DX005 (ip), vehicle: saline.
Where [4] appears, read: dose: 120.0 mg/kg/injection, schedule: Q01DX005 (ip), vehicle: saline.
Setting [5] is: dose: 200.0 mg/kg/injection, schedule: Q01DX005 (ip), vehicle: saline.
Where [6] appears, read: dose: 240.0 mg/kg/injection, schedule: Q01DX005 (ip), vehicle: saline.
[7] abbreviates: dose: 100.0 mg/kg/injection, schedule: Q01DX009 (ip), vehicle: saline with Tween-80.
The mark [8] stands for this setting: dose: 100.0 mg/kg/injection, schedule: Q04DX003 (ip), vehicle: saline with Tween-80.
[9] abbreviates: dose: 400.0 mg/kg/injection, schedule: Q04DX003 (ip), vehicle: saline with Tween-80.
Setting [10] is: dose: 50.0 mg/kg/injection, schedule: Q01DX005 (ip), vehicle: saline with Tween-80.
The mark [11] stands for this setting: dose: 100.0 mg/kg/injection, schedule: Q01DX005 (ip), vehicle: saline with Tween-80.
Setting [12] is: dose: 200.0 mg/kg/injection, schedule: Q01DX005 (ip), vehicle: saline with Tween-80.

For `CC(=O)N1CCN(C(C)=O)C2C1N(C(C)=O)CCN2C(C)=O` (stereo unspecified), the T/C runs as follows: under setting [1], 117 % of control; under setting [2], 105 % of control; under setting [3], 105 % of control; under setting [4], 107 % of control; under setting [5], 115 % of control; under setting [6], 100 % of control.
As for `CC(C)(C)N=C(CCSc1ccccc1)Nc1ccccc1Cl`, the T/C is, setting by setting: (dose: 50.0 mg/kg/injection, schedule: Q01DX009 (ip), vehicle: saline with Tween-80) 108 % of control; under setting [7], 109 % of control; (dose: 200.0 mg/kg/injection, schedule: Q01DX009 (ip), vehicle: saline with Tween-80) 113 % of control.
Consider `CC(=O)OC1C(=O)OCC1C(=O)N1Cc2cc3ccccc3nc2C1` (stereo unspecified), for which the T/C is, setting by setting: (dose: 100.0 mg/kg/injection, schedule: Q01DX001 (ip), vehicle: saline with Tween-80) 104 % of control; (dose: 200.0 mg/kg/injection, schedule: Q01DX001 (ip), vehicle: saline with Tween-80) 101 % of control; (dose: 400.0 mg/kg/injection, schedule: Q01DX001 (ip), vehicle: saline with Tween-80) 105 % of control.
As to `N/C(CC(=O)Nc1cc(C(F)(F)F)ccc1Cl)=N\O`, the T/C runs as follows: (dose: 60.0 mg/kg/injection, schedule: Q01DX005 (ip), vehicle: saline with Tween-80) 108 % of control; (dose: 120.0 mg/kg/injection, schedule: Q01DX005 (ip), vehicle: saline with Tween-80) 100 % of control; (dose: 240.0 mg/kg/injection, schedule: Q01DX005 (ip), vehicle: saline with Tween-80) 108 % of control.
As for `CC(=O)OC1C[C@@](C)(O)[C@@]23O[C@@H]2[C@@H]2O[C@]2(C)C3C2OC(=O)C(C)[C@H]12` (stereo partly specified), the T/C was 98 % of control (dose: 937.5 micrograms/kg/injection, schedule: Q01DX005 (ip), vehicle: Klucel (hydroxypropylcellulose) (HPC)); 100 % of control (dose: 1875.0 micrograms/kg/injection, schedule: Q01DX005 (ip), vehicle: Klucel (hydroxypropylcellulose) (HPC)); 100 % of control (dose: 3750.0 micrograms/kg/injection, schedule: Q01DX005 (ip), vehicle: Klucel (hydroxypropylcellulose) (HPC)); 97 % of control (dose: 7500.0 micrograms/kg/injection, schedule: Q01DX005 (ip), vehicle: Klucel (hydroxypropylcellulose) (HPC)).
With `Cc1cc(NCCCCCCCCNc2cc(C)nc3cc(N(C)C)ccc23)c2ccc(N(C)C)cc2n1`, the T/C by setting is: (dose: 12.5 mg/kg/injection, schedule: Q04DX002 (ip), vehicle: distilled water + Tween-80 + alcohol) 108 % of control; (dose: 25.0 mg/kg/injection, schedule: Q04DX002 (ip), vehicle: distilled water + Tween-80 + alcohol) 118 % of control; (dose: 100.0 mg/kg/injection, schedule: Q04DX002 (ip), vehicle: distilled water + Tween-80 + alcohol) 172 % of control.
On to `O=C(c1ccc(Cl)cc1)n1c(Cl)c(/C=N\Nc2ccccc2[N+](=O)[O-])c2ccccc21`, for which the T/C is, setting by setting: under setting [8], 93 % of control; (dose: 200.0 mg/kg/injection, schedule: Q04DX003 (ip), vehicle: saline with Tween-80) 90 % of control; under setting [9], 92 % of control.
Consider `NCC(OCCCC(=O)O)C(Cl)(Cl)Cl` (stereo unspecified), for which the T/C is 93 % of control (dose: 50.0 mg/kg/injection, schedule: Q01DX009 (ip), vehicle: saline); 101 % of control (dose: 100.0 mg/kg/injection, schedule: Q01DX009 (ip), vehicle: saline); 100 % of control (dose: 200.0 mg/kg/injection, schedule: Q01DX009 (ip), vehicle: saline).
`Cc1c2cc[n+](Cc3ccc(I)cc3)cc2c(C)c2c1[nH]c1ccccc12`: the T/C is, setting by setting: (dose: 11.75 mg/kg/injection, schedule: Q04DX002 (ip), vehicle: saline with Tween-80) 112 % of control; (dose: 23.5 mg/kg/injection, schedule: Q04DX002 (ip), vehicle: saline with Tween-80) 116 % of control; (dose: 47.0 mg/kg/injection, schedule: Q04DX002 (ip), vehicle: saline with Tween-80) 124 % of control.
Turning to `CS(=O)(=O)OCCCCCCCCCOS(C)(=O)=O`, the T/C runs as follows: (dose: 12.5 mg/kg/injection, schedule: Q01DX009 (ip), vehicle: saline sonified) 109 % of control; (dose: 25.0 mg/kg/injection, schedule: Q01DX009 (ip), vehicle: saline sonified) 122 % of control; (dose: 33.0 mg/kg/injection, schedule: Q04DX003 (ip), vehicle: saline with Tween-80) 109 % of control; (dose: 50.0 mg/kg/injection, schedule: Q01DX009 (ip), vehicle: saline sonified) 118 % of control; (dose: 50.0 mg/kg/injection, schedule: Q04DX003 (ip), vehicle: saline with Tween-80) 122 % of control; (dose: 75.0 mg/kg/injection, schedule: Q04DX003 (ip), vehicle: saline with Tween-80) 159 % of control.
Take `O=S(=O)(O)CCC(O)S(=O)(=O)O` (stereo unspecified): the T/C is 102 % of control under setting [2], 108 % of control under setting [4] and 94 % of control under setting [6].
As for `Nc1nc(I)c2ncn(C3OC(CO)C(O)C3O)c2n1` (stereo unspecified), the T/C runs as follows: under setting [10], 98 % of control; under setting [11], 92 % of control; under setting [12], 96 % of control.
Turning to `CCN(c1ccccc1)S(=O)(=O)c1cc(N)ccc1C`, the T/C is 101 % of control (dose: 25.0 mg/kg/injection, schedule: Q01DX009 (ip), vehicle: Klucel (hydroxypropylcellulose) (HPC)); 100 % of control (dose: 50.0 mg/kg/injection, schedule: Q01DX009 (ip), vehicle: Klucel (hydroxypropylcellulose) (HPC)); 110 % of control (dose: 100.0 mg/kg/injection, schedule: Q01DX009 (ip), vehicle: Klucel (hydroxypropylcellulose) (HPC)); 97 % of control (dose: 200.0 mg/kg/injection, schedule: Q01DX009 (ip), vehicle: Klucel (hydroxypropylcellulose) (HPC)); 93 % of control (dose: 400.0 mg/kg/injection, schedule: Q01DX009 (ip), vehicle: Klucel (hydroxypropylcellulose) (HPC)).
For the molecule `COC(=O)C(=O)C(C)C(=O)C(C)c1nc2n(c1O)C(=N)N=N2` (stereo unspecified), the T/C under setting [1] is 98 % of control, the T/C under setting [3] was 97 % of control and the T/C under setting [5] is 96 % of control.
In the case of `CCOC(=O)C1=C(/C=C/c2cccc(Cl)c2)O/C(=C/c2cccc(Cl)c2)C1=O`, the T/C was 87 % of control under setting [10], 96 % of control under setting [11] and 106 % of control under setting [12].
For the molecule `Nc1ccn(C2OC(COP(=O)(O)O)C(O)C2O)c(=O)n1` (stereo unspecified), the T/C reads like this: under setting [8], 150 % of control; (dose: 264.0 mg/kg/injection, schedule: Q04DX003 (ip), vehicle: saline with Tween-80) 181 % of control; under setting [9], 166 % of control and 177 % of control; (dose: 600.0 mg/kg/injection, schedule: Q04DX003 (ip), vehicle: saline with Tween-80) 209 % of control.
Turning to `C1#CCCCCCC#CCCCC1`, the T/C was 109 % of control (dose: 20.0 mg/kg/injection, schedule: Q01DX009 (ip), vehicle: saline with Tween-80); 104 % of control (dose: 30.0 mg/kg/injection, schedule: Q01DX009 (ip), vehicle: saline with Tween-80); 100 % of control (dose: 44.0 mg/kg/injection, schedule: Q01DX009 (ip), vehicle: saline with Tween-80); 104 % of control (dose: 66.0 mg/kg/injection, schedule: Q01DX009 (ip), vehicle: saline with Tween-80); 104 % of control under setting [7]; 109 % of control (dose: 150.0 mg/kg/injection, schedule: Q01DX009 (ip), vehicle: saline with Tween-80).
Take `COc1cccc2c1C(=O)c1c(O)c3c(c(O)c1C2=O)C[C@@](O)(C(C)=O)CC3OC1CC(NC(=O)CCN)C(O)C(C)O1` (stereo partly specified): the T/C reads like this: (dose: 6.25 mg/kg/injection, schedule: Q04DX003 (ip), vehicle: saline) 97 % of control; (dose: 12.5 mg/kg/injection, schedule: Q04DX003 (ip), vehicle: saline) 100 % of control; (dose: 25.0 mg/kg/injection, schedule: Q04DX003 (ip), vehicle: saline) 103 % of control; (dose: 50.0 mg/kg/injection, schedule: Q04DX003 (ip), vehicle: saline) 97 % of control.
As to `COc1ccc(C(=O)C(c2ccc(OC)c(OC)c2O)C(OC)OC)c(O)c1` (stereo unspecified), the T/C was 100 % of control (dose: 75.0 mg/kg/injection, schedule: Q04DX003 (ip), vehicle: Klucel (hydroxypropylcellulose) (HPC)); 98 % of control (dose: 150.0 mg/kg/injection, schedule: Q04DX003 (ip), vehicle: Klucel (hydroxypropylcellulose) (HPC)); 98 % of control (dose: 300.0 mg/kg/injection, schedule: Q04DX003 (ip), vehicle: Klucel (hydroxypropylcellulose) (HPC)).
